Test: COPAS bead-based screening, background binding of the dye to library beads
Details: TR-labeled lysine and TR-labeled hCAII

For `O=S(=O)([O-])c1cc(S(=O)(=O)Cl)ccc1C1=c2cc3c4c(c2Oc2c1cc1c5c2CCCN5CCC1)CCC[N+]=4CCC3` [TR], the “composition of positive peptides: positively charged amino acids” value was “reduced abundance of positively charged amino acids”.

Reference: publication PMC4224607 (Chemical communications (Cambridge, England), 2014)
